Side chains are listed from the residue outwards. Peptide text beside a SMILES is read from it. * marks the point of attachment. Biotin = O=C1N[C@H]2[C@H](CS[C@H]2CCCCC(=O)*)N1; X1 = N=C(N)NCCCC(N*)P(=O)(Oc1ccccc1)Oc1ccccc1; Palmitoyl = CCCCCCCCCCCCCCCC(=O)*; Ahx = NCCCCCC(=O)O
Assays:
recombinant human furin = target: T1, recombinant human furin (Homo sapiens, UniProt P09958); assay: Western blot with streptavidin-HRP of inhibitor-furin complex; format: binding; settings: QUB-F1 100 μM, furin 0.4 μg, reducing and denaturing conditions
T1 construct: purchased R&D Systems
T1 sequence (P09958 108-794): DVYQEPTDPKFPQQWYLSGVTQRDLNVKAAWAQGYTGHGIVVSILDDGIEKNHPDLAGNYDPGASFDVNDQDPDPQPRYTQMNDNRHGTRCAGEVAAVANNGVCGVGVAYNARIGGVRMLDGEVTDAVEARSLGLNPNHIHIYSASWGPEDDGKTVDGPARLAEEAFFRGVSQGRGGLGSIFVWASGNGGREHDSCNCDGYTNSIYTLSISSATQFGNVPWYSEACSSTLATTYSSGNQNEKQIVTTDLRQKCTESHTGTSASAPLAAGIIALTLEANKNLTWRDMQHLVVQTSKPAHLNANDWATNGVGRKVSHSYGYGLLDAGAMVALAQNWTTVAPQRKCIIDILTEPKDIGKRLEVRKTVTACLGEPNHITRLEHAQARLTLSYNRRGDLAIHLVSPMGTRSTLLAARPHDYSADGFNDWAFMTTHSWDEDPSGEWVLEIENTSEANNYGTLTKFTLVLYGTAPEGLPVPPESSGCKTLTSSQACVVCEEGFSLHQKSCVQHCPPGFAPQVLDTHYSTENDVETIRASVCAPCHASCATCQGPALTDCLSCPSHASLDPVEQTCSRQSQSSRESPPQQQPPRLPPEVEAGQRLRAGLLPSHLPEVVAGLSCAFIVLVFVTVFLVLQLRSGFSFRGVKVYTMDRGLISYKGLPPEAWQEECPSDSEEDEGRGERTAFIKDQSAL
Description: Recombinant human furin (0.4 μg) was incubated with QUB-F1 (100 μM) for 45 minutes at 37°C. The sample was then denatured and reduced in Laemmli treatment buffer for 5 minutes at 95°C, resolved by SDS-PAGE, before transfer onto a nitrocellulose membrane which was blocked with a solution of Tris-buffered saline (TBS) containing 3% (w/v) bovine serum albumin and 0.1% (v/v) Tween-20. The membrane was subsequently probed with a streptavidin-Horseradish peroxidase conjugate (1:10,000) (Vector-Laboratories) in blocking solution for 1 h prior to detection by chemiluminescence (Luminata Forte Western HRP substrate (Millipore)).
Fig 1 Irreversible inhibition and visualization of recombinant human furin by QUB-F1. […] The inhibitor-proteases complex can be visualized using streptavidin-HRP, which detects the biotin reporter group on the compound.

matriptase = target: T2, matriptase (Homo sapiens, UniProt Q9Y5Y6); assay: Fluorogenic protease activity assay, matriptase; format: biochemical; settings: 10 μM inhibitor, Boc-Gln-Ala-Arg-NH2Mec 50 μM, N = 3
T2 construct: purchased R&D Systems
T2 sequence (Q9Y5Y6 1-855): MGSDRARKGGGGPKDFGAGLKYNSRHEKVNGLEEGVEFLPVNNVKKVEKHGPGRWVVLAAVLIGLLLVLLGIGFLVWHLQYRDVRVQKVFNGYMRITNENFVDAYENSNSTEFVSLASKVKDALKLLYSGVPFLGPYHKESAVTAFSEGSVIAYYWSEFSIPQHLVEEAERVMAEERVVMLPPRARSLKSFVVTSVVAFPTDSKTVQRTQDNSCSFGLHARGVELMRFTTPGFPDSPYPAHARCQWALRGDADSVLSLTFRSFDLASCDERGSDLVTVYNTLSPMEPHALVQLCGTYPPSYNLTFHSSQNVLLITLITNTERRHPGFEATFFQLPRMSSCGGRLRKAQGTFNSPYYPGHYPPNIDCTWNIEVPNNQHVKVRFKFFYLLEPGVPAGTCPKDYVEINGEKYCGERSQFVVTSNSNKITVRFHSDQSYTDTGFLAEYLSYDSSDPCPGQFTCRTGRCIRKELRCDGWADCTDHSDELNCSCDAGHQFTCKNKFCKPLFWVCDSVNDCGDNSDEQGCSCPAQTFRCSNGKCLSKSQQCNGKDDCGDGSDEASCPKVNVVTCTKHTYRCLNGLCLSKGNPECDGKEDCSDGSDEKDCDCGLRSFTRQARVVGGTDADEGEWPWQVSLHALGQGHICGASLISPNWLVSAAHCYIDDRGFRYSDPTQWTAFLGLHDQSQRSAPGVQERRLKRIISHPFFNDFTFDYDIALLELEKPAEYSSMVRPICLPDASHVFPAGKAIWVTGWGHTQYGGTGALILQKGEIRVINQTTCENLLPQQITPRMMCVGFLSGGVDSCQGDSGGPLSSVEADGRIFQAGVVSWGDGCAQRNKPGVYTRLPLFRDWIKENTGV
Source text: (§1) Recombinant human enzymes were sourced as follows: furin and matriptase (R&D Systems); prostasin (Sino Biological); trypsin and chymotrypsin (Sigma-Aldrich); factor Xa and neutrophil elastase (Merck Millipore) and proteinase-3 and cathepsin G (Elastin Products, Missouri). Fluorogenic substrates were sourced as follows: p-Glu-Arg-Thr-Lys-Arg-NH2Mec and Boc-Gln-Ala-Arg-NH2Mec (R&D Systems); Boc-Ile-Glu-Gly-Arg-NH2Mec (Bachem); Z-Gly-Gly-Arg-NH2Mec, MeOSuc-Ala-Ala-Pro-Val-NH2Mec and Suc-Ala-Ala-Pro-Phe-NH2Mec (Sigma-Aldrich). All chemicals and reagents for the synthesis of QUB-F1 were supplied by Sigma-Aldrich unless otherwise indicated. Fmoc-Lys(Boc)-SASRIN resin was sourced from Bachem. Fmoc-protected amino acids and HCTU were supplied by Merck Millipore.
(§2) Recombinant protease activities were assessed using the cognate fluorogenic substrates (final concentration 50 μM) as follows: trypsin (Z-Gly-Gly-Arg-NH2Mec), prostasin and matriptase (Boc-Gln-Ala-Arg-NH2Mec), factor Xa (Boc-Ile-Glu-Gly-Arg-NH2Mec), neutrophil elastase and proteinase 3 (MeO-Suc-Ala-Ala-Pro-Val-NH2Mec), chymotrypsin and cathepsin G (Suc-Ala-Ala-Pro-Phe-NH2Mec). The rate of substrate hydrolysis in the presence or absence of furin inhibitors was assessed by continuous recording at λex 360 nm, λem 480 nm, over a period of 60 minutes using a FLUOstar Optima microplate reader (BMG Labtech). […]

trypsin = assay: Fluorogenic protease activity assay, trypsin; format: biochemical, human; settings: 10 μM inhibitor, Z-Gly-Gly-Arg-NH2Mec 50 μM, N = 3
Source text: as §1, §2

CuFi-1 epithelial cells = assay: PEA-induced epithelial cell toxicity (LDH cytotoxicity assay); format: cell-based, human; settings: 2 μg/ml PEA, 24 h, CF airway epithelial cells
Description: The CuFi-1 cell line was derived from human airway epithelium of a CF patient (F508del/F508del) transformed with a reverse transcriptase component of telomerase, hTERT and human papillomavirus type 16 E6 and E7 genes. Cells were grown as submerged cultures using bronchial epithelial growth medium (BEBM including a supplement pack) containing: epidermal growth factor, hydrocortisone, bovine pituitary extract, transferrin, bovine insulin, triiodothyronine, epinephrine, retinoic acid, penicillin-streptomycin (0.025 μg/ml), gentamycin ([…]) and amphotericin (25 μg/ml).
Cytotoxicity was determined using the LDH-Cytotoxicity Colorimetric Assay Kit II (Bio Vision) in accordance with the instructions provided by the manufacturer. Addition of the supplied cell lysis solution to control wells was used to determine 100% cytotoxicity in each set of experiments.
Fig 4 Effect of furin inhibitors on PEA-induced epithelial cell toxicity. (A) Cell toxicity (%) induced by 2 μg/ml PEA (24 h) was measured in the presence or absence of furin I or QUB-F1. Data represent mean ± s.e.m. *P<0.05. (B) Airway epithelial cell surface furin-like activity was assayed upon application of the furin fluorogenic substrate (pERTKR) to cell cultures in the presence or absence of 10 μM furin I or QUB-F1.

## CCCCCCCCCCCCCCCC(=O)N[C@@H](CCCCNC(=O)CCCCCNC(=O)CCCC[C@@H]1SC[C@@H]2NC(=O)N[C@@H]21)C(=O)N[C@@H](CCCNC(=N)N)C(=O)N[C@H](C(=O)N[C@@H](CCCCN)C(=O)NC(CCCNC(=N)N)P(=O)(Oc1ccccc1)Oc1ccccc1)C(C)C (stereo partly drawn) [QUB-F1, N^α-Pal-N^ω-(Biotinyl-Ahx)-Lys-RVKR^P(OPh)2] (Palmitoyl-K([Ahx-Biotin])RVK-X1)
Recombinant human furin
  irreversible binding to furin (visualized by streptavidin-HRP): irreversibly bound
matriptase
  inhibition of matriptase: did not
trypsin
  inhibition of trypsin: did not
CuFi-1 epithelial cells
  effect on PEA-induced epithelial cell toxicity: offered no protection
